Here are results for 13 compounds from patent US20230322761A1, “DEGRADATION OF BRUTON'S TYROSINE KINASE (BTK) BY CONJUGATION OF BTK INHIBITORS WITH E3 LIGASE LIGAND AND METHODS OF USE” (BEIGENE, LTD., priority 2020, published 2023).

For orientation: DC50 means the concentration giving 50% degradation. High values mean degradation only at high concentration, low ones degradation at low concentration. As usually defined, the Dmax is the greatest extent of degradation seen. The low end stands for a partial loss of target, the high end for a fuller loss of target.

The target of this assay is T1, BTK (Homo sapiens, UniProt Q06187).
T1 construct: endogenous in cells; host or cells: TMD-8 cells
T1 sequence (Q06187 whole entry): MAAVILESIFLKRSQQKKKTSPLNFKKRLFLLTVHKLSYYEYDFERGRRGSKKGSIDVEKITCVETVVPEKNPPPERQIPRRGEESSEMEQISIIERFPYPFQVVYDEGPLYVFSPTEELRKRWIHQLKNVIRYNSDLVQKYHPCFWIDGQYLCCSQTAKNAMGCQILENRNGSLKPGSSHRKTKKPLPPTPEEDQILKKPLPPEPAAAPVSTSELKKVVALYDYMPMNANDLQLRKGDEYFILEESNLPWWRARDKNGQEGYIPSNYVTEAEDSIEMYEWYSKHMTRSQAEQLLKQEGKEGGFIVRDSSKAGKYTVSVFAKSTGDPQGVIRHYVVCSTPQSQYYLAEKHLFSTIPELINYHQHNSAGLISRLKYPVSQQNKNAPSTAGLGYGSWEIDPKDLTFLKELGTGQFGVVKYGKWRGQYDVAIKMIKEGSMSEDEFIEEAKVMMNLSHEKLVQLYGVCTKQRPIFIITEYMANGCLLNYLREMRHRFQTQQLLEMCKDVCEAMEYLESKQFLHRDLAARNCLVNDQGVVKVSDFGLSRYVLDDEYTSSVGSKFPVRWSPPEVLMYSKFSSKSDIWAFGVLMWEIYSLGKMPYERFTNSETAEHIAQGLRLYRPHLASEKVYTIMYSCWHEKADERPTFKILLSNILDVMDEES
Put plainly: BTK degradation in TMD-8 cells, HTRF assay after 6 h treatment. It counts as cell-based. The note with it: for DC50: IC50 (DC50) of BTK degradation; for Dmax: TMD8, maximum percentage of inhibition (degradation). Put shortly:
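TMD-8 cells treated for 6 h with 8 compound doses in 6-fold dilution steps from a 1 mM 500× DMSO stock (0.2% DMSO), then lysed 30 min at room temperature. BTK in lysate detected by HTRF (665/620 nm) after overnight antibody incubation; DC50 from four-parameter curve fit.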
In general terms: TR-FRET usually uses a lanthanide donor and a delayed reading to cut background.

Compound `Cc1cc(-c2n[nH]c3ncc(-c4ccc(N5CCN(CCC6CCN(c7ccc(C8CCC(=O)NC8=O)c(F)c7)CC6)CC5)cc4)cc23)ccc1CNC(=O)c1noc(C(C)(C)C)n1` (stereo not drawn) [Example 48, 5-(tert-butyl)-N-(4-(5-(4-(4-(2-(1-(4-(2,6-dioxopiperidin-3-yl)-3-fluorophenyl)piperidin-4-yl)ethyl)piperazin-1-yl)phenyl)-1H-pyrazolo[3,4-b]pyridin-3-yl)-2-methylbenzyl)-1,2,4-oxadiazole-3-carboxamide] showed a DC50 of 4.76 nM.
The same measure, in the same setting: in the case of `Cc1cc(N2CCC(CN3CCN(c4ccc(-c5cnc6[nH]nc(-c7ccc([C@@H](C)NC(=O)c8noc(C(C)(C)C)n8)c(CO)c7)c6c5)cn4)CC3)CC2)ccc1N1CCC(=O)NC1=O` [Example 179, (R)-5-(tert-butyl)-N-(1-(4-(5-(6-(4-((1-(4-(2,4-dioxotetrahydropyrimidin-1(2H)-yl)-3-methylphenyl)piperidin-4-yl)methyl)piperazin-1-yl)pyridin-3-yl)-1H-pyrazolo[3,4-b]pyridin-3-yl)-2-(hydroxymethyl)phenyl)ethyl)-1,2,4-oxadiazole-3-carboxamide] it was 6.28 nM.
Take `Cc1cc(-c2n[nH]c3ncc(-c4ccc(N5CCN(C6CC(c7ccc([C@H]8CCC(=O)NC8=O)cc7)C6)CC5)cc4)cc23)ccc1[C@@H](C)NC(=O)c1noc(C(C)(C)C)n1` (stereo partly drawn) [Example 224, 5-(tert-butyl)-N—((R)-1-(4-(5-(4-(4-((1S,3r)-3-(4-((R)-2,6-dioxopiperidin-3-yl)phenyl)cyclobutyl)piperazin-1-yl)phenyl)-1H-pyrazolo[3,4-b]pyridin-3-yl)-2-methylphenyl)ethyl)-1,2,4-oxadiazole-3-carboxamide]: half-maximal degradation (DC50) was put at 6.16 nM.
Take `Cc1cc(-c2n[nH]c3ncc(-c4ccc(N5CCN(CCCOc6ccc(C7CCC(=O)NC7=O)c(F)c6)CC5)cc4)cc23)ccc1[C@@H](C)NC(=O)c1noc(C(C)(C)C)n1` (stereo partly drawn) [Example 86, 5-(tert-butyl)-N-((1R)-1-(4-(5-(4-(4-(3-(4-(2,6-dioxopiperidin-3-yl)-3-fluorophenoxy)propyl)piperazin-1-yl)phenyl)-1H-pyrazolo[3,4-b]pyridin-3-yl)-2-methylphenyl)ethyl)-1,2,4-oxadiazole-3-carboxamide]: it took 3.95 nM to reach half-maximal degradation (DC50).
Turning to `Cc1cc(-c2n[nH]c3ncc(-c4ccc(N5CCN(CCC6CCN(c7ccc(C8CCC(=O)NC8=O)c(C)n7)CC6)CC5)cc4)cc23)ccc1[C@@H](C)NC(=O)c1noc(C(C)(C)C)n1` (stereo partly drawn) [Example 136, 5-(tert-butyl)-N-((1R)-1-(4-(5-(4-(4-(2-(1-(5-(2,6-dioxopiperidin-3-yl)-6-methylpyridin-2-yl)piperidin-4-yl)ethyl)piperazin-1-yl)phenyl)-1H-pyrazolo[3,4-b]pyridin-3-yl)-2-methylphenyl)ethyl)-1,2,4-oxadiazole-3-carboxamide], the DC50 was 14.9 nM.
Regarding `Cc1cc(-c2n[nH]c3ncc(-c4ccc(N5CCN(CCc6ccc(C7CCC(=O)NC7=O)c(Cl)c6)CC5)cc4)cc23)ccc1CNC(=O)c1noc(C(C)(C)C)n1` (stereo not drawn) [Example 51, 5-(tert-butyl)-N-(4-(5-(4-(4-(3-chloro-4-(2,6-dioxopiperidin-3-yl)phenethyl)piperazin-1-yl)phenyl)-1H-pyrazolo[3,4-b]pyridin-3-yl)-2-methylbenzyl)-1,2,4-oxadiazole-3-carboxamide], the DC50 came to 3.83 nM.
Regarding `CC(C)(C)c1noc(C(=O)NCc2ccc(-c3n[nH]c4ncc(-c5ccc(C6CCN(CCc7ccc(C8CCC(=O)NC8=O)cc7)CC6)cc5)cc34)cc2F)n1` (stereo not drawn) [Example 14, 3-(tert-butyl)-N-(4-(5-(4-(1-(4-(2,6-dioxopiperidin-3-yl)phenethyl)piperidin-4-yl)phenyl)-1H-pyrazolo[3,4-b]pyridin-3-yl)-2-fluorobenzyl)-1,2,4-oxadiazole-5-carboxamide], the DC50 came out at 4.74 nM and the Dmax is 95.2%.
For `Cc1cc(-c2n[nH]c3ncc(-c4ccc(C5CCN(CCc6ccc(C7CCC(=O)NC7=O)cc6)CC5)nc4)cc23)ccc1[C@@H](C)NC(=O)c1noc(C(C)(C)C)n1` (stereo partly drawn) [Example 117, 5-(tert-butyl)-N-((1R)-1-(4-(5-(6-(1-(4-(2,6-dioxopiperidin-3-yl)phenethyl)piperidin-4-yl)pyridin-3-yl)-1H-pyrazolo[3,4-b]pyridin-3-yl)-2-methylphenyl)ethyl)-1,2,4-oxadiazole-3-carboxamide], the DC50 is 3.5 nM.
Same read-out and setting: in the case of `Cc1cc(-c2n[nH]c3ncc(-c4ccc(N5CCC(CN6CCN(c7ccc(N8CCC(=O)NC8=O)cc7)CC6)CC5)cc4)cc23)ccc1[C@@H](C)NC(=O)c1noc(C(C)(C)C)n1` [Example 144, (R)-5-(tert-butyl)-N-(1-(4-(5-(4-(4-((4-(4-(2,4-dioxotetrahydropyrimidin-1(2H)-yl)phenyl)piperazin-1-yl)methyl)piperidin-1-yl)phenyl)-1H-pyrazolo[3,4-b]pyridin-3-yl)-2-methylphenyl)ethyl)-1,2,4-oxadiazole-3-carboxamide] it was 1.93 nM; in that of `Cc1cc(-c2n[nH]c3ncc(-c4ccc(N5CCN(CCc6ccc([C@@H]7CCC(=O)NC7=O)c(F)c6)CC5)cc4)cc23)ccc1[C@@H](C)NC(=O)c1noc(C(C)(C)C)n1` [Example 114, 5-(tert-butyl)-N—((R)-1-(4-(5-(4-(4-(4-((S)-2,6-dioxopiperidin-3-yl)-3-fluorophenethyl)piperazin-1-yl)phenyl)-1H-pyrazolo[3,4-b]pyridin-3-yl)-2-methylphenyl)ethyl)-1,2,4-oxadiazole-3-carboxamide], 1.56 nM.
Regarding `COc1ccc(C(=O)N2CCC(c3ccc(-c4cnc5[nH]nc(-c6ccc(CNC(=O)c7nc(C(C)(C)C)no7)c(F)c6)c5c4)cc3)CC2)cc1N1CCC(=O)NC1=O` [Example 18, 3-(tert-butyl)-N-(4-(5-(4-(1-(3-(2,4-dioxotetrahydropyrimidin-1(2H)-yl)-4-methoxybenzoyl)piperidin-4-yl)phenyl)-1H-pyrazolo[3,4-b]pyridin-3-yl)-2-fluorobenzyl)-1,2,4-oxadiazole-5-carboxamide], the DC50 is > 2000 nM and the maximal degradation (Dmax) is 3.39%.
`Cc1cc(-c2n[nH]c3ncc(-c4ccc(C5(C)CCN(C6CC(c7ccc(C8CCC(=O)NC8=O)cc7)C6)CC5)cc4)cc23)ccc1[C@@H](C)NC(=O)c1noc(C(C)(C)C)n1` (stereo partly drawn) [Example 211, 5-(tert-butyl)-N-((1R)-1-(4-(5-(4-(1-(3-(4-(2,6-dioxopiperidin-3-yl)phenyl)cyclobutyl)-4-methylpiperidin-4-yl)phenyl)-1H-pyrazolo[3,4-b]pyridin-3-yl)-2-methylphenyl)ethyl)-1,2,4-oxadiazole-3-carboxamide]: the DC50 is 13.5 nM.
The same measure, in the same setting: for `Cc1nc(CCN2CCN(c3ccc(-c4cnc5[nH]nc(-c6ccc([C@@H](C)NC(=O)c7nc(C(C)(C)C)no7)c(CO)c6)c5c4)cc3)CC2)ccc1C1CCC(=O)NC1=O` (stereo partly drawn) [Example 177, 3-(tert-butyl)-N-((1R)-1-(4-(5-(4-(4-(2-(5-(2,6-dioxopiperidin-3-yl)-6-methylpyridin-2-yl)ethyl)piperazin-1-yl)phenyl)-1H-pyrazolo[3,4-b]pyridin-3-yl)-2-(hydroxymethyl)phenyl)ethyl)-1,2,4-oxadiazole-5-carboxamide] the value was 3.47 nM.
